Structures are written as SMILES.

System in one series: not listed separately
As to the kind of experiment: log P determination by HPLC (reversed-phase C 18), EEC Directive 79/831 Annex V.A8. Type of series: physicochemical. The conditions noted are these: HPLC, pH 2.3, 43° C. The procedure:
The log P values given in the tables and Preparation Examples above are determined in accordance with EEC Directive 79/831 Annex V.A8 by HPLC (High Performance Liquid Chromatography) using a reversed-phase column (C 18). Temperature: 43° C. […]
Calibration was carried out using unbranched alkan-2-ones (having 3 to 16 carbon atoms) with known log P values (determination of the log P values by the retention times using linear interpolation between two successive […]).
In the case of `O=C1CC[C@@]2(c3ccc(Br)cc3)OC[C@H](c3ccccc3)N12` [IX-2, (3S,7aS)-7a-(4-Bromophenyl)-3-phenyltetrahydropyrrolo[2,1-b][1,3],oxazol-5(6H)-one], the “log P (pH 2.3)” value was “log P (pH 2.3) = 3.36 (purity 92.3%)”.
Take `C=CCNC(=O)CCC(=O)c1ccc(-c2ccc(OC(F)(F)F)cc2)cc1` [XV-1, N-Allyl-4-oxo-4-[4′-(trifluoromethoxy)-1,1′-biphenyl-4-yl]butanamide]: the “log P (pH 2.3)” value came out at 3.42.

Staying with this series, now noted: HPLC, pH 2.3, 43° C.; read-out: log P (pH 2.3).
In the case of `Oc1ccc(-c2ccc([C@H]3CCC(c4c(F)cccc4F)=N3)cc2)cc1` [I-9], the chromatographic logP turned out to be 1.93.
On to `CC(C)(C)OC(=O)N1C(=O)CC[C@@H]1c1ccc(-c2ccc(OC(F)(F)F)cc2)cc1` [V-1, tert-butyl (5R)-2-oxo-5-[4′-(trifluoromethoxy)-1,1′-biphenyl-4-yl]-1-pyrrolidine carboxylate], for which the chromatographic logP was 4.32.
Still for that read-out and setting: next, `CC(C)(C)OC(=O)N[C@H](CCC(=O)c1c(F)cccc1F)c1ccc(-c2ccc(OC(F)(F)F)cc2)cc1` [IV-1, tert-butyl (1R)-4-(2,6-difluorophenyl)-4-oxo-1-[4′-(trifluoromethoxy)-1,1′-biphenyl-4-yl]butylcarbamate]: 5.18; `CC(C)(C)OC(=O)N[C@H](CCC(=O)c1c(F)cccc1F)c1ccc(-c2ccc(C#N)cc2)cc1` [IV-4]: 4.1.
For `CC(C)(C)OC(=O)N[C@H](CCC(=O)c1c(F)cccc1F)c1ccc(Br)cc1` [IV-2, tert-butyl (1R)-1-(4-bromophenyl)-4-(2,6-difluorophenyl)-4-oxobutylcarbamate], the chromatographic logP was 4.22.

Still in this series, the particulars now being: reversed-phase C18 HPLC column, pH 2.3, HPLC, pH 2.3, 43° C.; read-out: log P (pH 2.3).
In the case of `O=C1CC[C@H](c2ccc(-c3ccc(OC(F)(F)F)cc3)cc2)N1[C@H](CO)c1ccccc1` [X-1, (5R)-1-[(1S)-2-Hydroxy-1-phenylethyl]-5-[4′-(trifluoromethoxy)-1,1′-biphenyl-4-yl]-2-pyrrolidinone], the chromatographic logP worked out at 3.8.
For the molecule `CC(C)(C)OC(=O)N1C(=O)CC[C@@H]1c1ccc(-c2ccc(C#N)cc2)cc1` [V-4], the chromatographic logP was found to be 3.02.
Same read-out and setting: next, `C=C(c1ccccc1)N1C(=O)CC[C@@H]1c1ccc(-c2ccc(OC(F)(F)F)cc2)cc1` [XII-1, (5R)-1-(1-Phenylvinyl)-5-[4′-(trifluoromethoxy)-1,1′-biphenyl-4-yl]-2-pyrrolidinone]: 4.35; `O=S(=O)(c1ccc(-c2ccc([C@H]3CCC(c4c(F)cccc4F)=N3)cc2)cc1)C(F)(F)F` [I-11, (2R)-5-(2,6-difluorophenyl)-2-{4′-[(trifluoromethyl)sulphonyl]-1,1′-biphenyl-4-yl}-3,4-dihydro-2H-pyrrole]: 3.92; `O=C1CC[C@H](c2ccc(-c3ccc(OC(F)(F)F)cc3)cc2)N1` [VII-1, (5R)-5-[4′-(Trifluoromethoxy)-1,1′-biphenyl-4-yl]-2-pyrrolidinone]: 2.95.
`CC(C)(C)OC(=O)N1C(=O)CC[C@@H]1c1ccc(Br)cc1` [V-2, tert-butyl (2R)-2-(4-bromophenyl)-5-oxo-1-pyrrolidinecarboxylate]: the chromatographic logP turned out to be 3.04.
Take `Fc1cccc(F)c1C1=N[C@@H](c2ccc(Br)cc2)CC1` [I-15, (2R)-2-(4-bromophenyl)-5-(2,6-difluorophenyl)-3,4-dihydro-2H-pyrrole]: the chromatographic logP came out at 2.74.
Still for that read-out and setting: next, `C=CCN1C(=O)CC[C@@H]1c1ccc(-c2ccc(OC(F)(F)F)cc2)cc1` [XVII-1, (5R)-1-Allyl-5-[4′-(trifluoromethoxy)-1,1′-biphenyl-4-yl]-2-pyrrolidinone]: 3.88.
The same measure, in the same setting: for `COC(=O)CCC(=O)c1ccc(-c2ccc(OC(F)(F)F)cc2)cc1` [VIII-a-1, Methyl-4-oxo-4-[4′-(trifluoromethoxy)-1,1′-biphenyl-4-yl]butanoate] the value was 4.01; for `O=C1CC[C@@]2(c3ccc(-c4ccc(OC(F)(F)F)cc4)cc3)OC[C@H](c3ccccc3)N12` [IX-1, (3S,7aS)-3-Phenyl-7a-[4′-(trifluoromethoxy)-1,1′-biphenyl-4-yl]tetrahydropyrrolo-[2,1-b][1,3]oxazol-5(6H)-one], 4.55; for `C=CCNC(=O)CC[C@H](O)c1ccc(-c2ccc(OC(F)(F)F)cc2)cc1` [XVI-1, (4S)—N-Allyl-4-hydroxy-4-[4′-(trifluoromethoxy)-1,1′-biphenyl-4-yl]butanamide], 2.99.
`O=C1CC[C@H](c2ccc(Br)cc2)N1[C@H](CO)c1ccccc1` [X-2, (5R)-5-(4-Bromophenyl)-1-[(1S)-2-hydroxy-1-phenylethyl]-2-pyrrolidinone]: the chromatographic logP is 2.58.
Still for that read-out and setting: for `C=C(c1ccccc1)N1C(=O)CC[C@@H]1c1ccc(Br)cc1` [XII-2, (5R)-5-(4-Bromophenyl)-1-(1-phenylvinyl)-2-pyrrolidinone] the value was 3.18.
Same read-out and setting: next, `O=C1CC[C@H](c2ccc(Br)cc2)N1[C@H](CCl)c1ccccc1` [XI-2, (5R)-5-(4-Bromophenyl)-1-[(1S)-2-chloro-1-phenylethyl]-2-pyrrolidinone]: 3.61.
Still for that read-out and setting: next, `C=CCNC(=O)CCC(=O)c1ccc(-c2ccc(OC(F)(F)F)cc2)cc1` [XV-1, N-Allyl-4-oxo-4-[4′-(trifluoromethoxy)-1,1′-biphenyl-4-yl]butanamide]: 3.34; `O=C1CC[C@H](c2ccc(Br)cc2)N1` [VII-2, (5R)-5-(4-Bromophenyl)-2-pyrrolidinone]: 3.54.
Regarding `O=C1CC[C@H](c2ccc(-c3ccc(OC(F)(F)F)cc3)cc2)N1[C@H](CCl)c1ccccc1` [XI-1, (5R)-1-[(1S)-2-Chloro-1-phenylethyl]-5-[4′-(trifluoromethoxy)-1,1′-biphenyl-4-yl]-2-pyrrolidinone], the chromatographic logP amounted to 4.78.
On the same count and under the same terms, next, `N#Cc1ccc(-c2ccc([C@H]3CCC(c4c(F)cccc4F)=N3)cc2)cc1` [I-17]: 2.85.
Same read-out and setting: for `Fc1cccc(F)c1C1=N[C@@H](c2ccc(-c3ccc(OC(F)(F)F)cc3)cc2)CC1` [I-3, (2R)-5-(2,6-difluorophenyl)-2-[4′-(trifluoromethoxy)-1,1′-biphenyl-4-yl]-3,4-dihydro-2H-pyrrole] the value was 4.08.

The same series, now with this note: reversed-phase C18 HPLC column, pH 2.3, pH not given; read-out: log p/m.p.: log P.
In the case of `O=S(=O)(c1ccc(-c2ccc([C@H]3CCC(c4c(F)cccc4F)=N3)cc2)cc1)C(F)(F)F` [I-11, (2R)-5-(2,6-difluorophenyl)-2-{4′-[(trifluoromethyl)sulphonyl]-1,1′-biphenyl-4-yl}-3,4-dihydro-2H-pyrrole], the chromatographic logP stood at 3.92.

Still in this series, the particulars now being: reversed-phase C18 HPLC column, pH 7, HPLC, pH 7; read-out: log P (pH 7).
Take `CC1(C)OB(c2ccc([C@H]3CCC(c4c(F)cccc4F)=N3)cc2)OC1(C)C` [I-b-1, (2R)-5-(2,6-difluorophenyl)-2-[4-(4,4,5,5-tetramethyl-1,3,2-dioxaborolan-2-yl)phenyl]-3,4-dihydro-2H-pyrrole]: the chromatographic logP is 4.47.

Another series has as its system Plutella xylostella. As to the kind of experiment: Plutella test (cabbage leaves, dip). Type of series: in vivo. To be noted: 0.01 ppm. As to the method:
(§1) [table] To produce a suitable preparation of active compound, 1 part by weight of active compound is mixed with the stated amounts of solvent and emulsifier, and the concentrate is diluted with emulsifier-containing water to the desired concentration. Cabbage leaves (Brassica oleracea) are treated by being dipped into the preparation of active compound of the desired concentration and are populated with caterpillars of the diamond back moth (Plutella xylostella) while the leaves are still moist. After the desired period of time, the kill in % is determined. 100% means that all caterpillars have been killed; 0% means that none of the caterpillars have been killed.
In the case of `Fc1cccc(F)c1C1=NC(c2ccc(-c3ccc(OC(F)(F)F)cc3)cc2)CC1` (stereo not drawn) [drawing 71], the “Kill rate in % after 6 d” value is 0%.
Same read-out and setting: next, `Fc1cccc(F)c1C1=N[C@@H](c2ccc(-c3ccc(OC(F)(F)F)cc3)cc2)CC1` [drawing 72]: 100%.

Still in this series, the particulars now being: 0.0128 ppm.
Regarding `Fc1cccc(F)c1C1=N[C@@H](c2ccc(-c3ccc(SC(F)(F)F)cc3)cc2)CC1` [drawing 75], the “Kill rate in % after 6 d” value was 45%.
Same read-out and setting: for `Fc1cccc(F)c1C1=NC(c2ccc(-c3ccc(SC(F)(F)F)cc3)cc2)CC1` (stereo not drawn) [drawing 74] the value was 10%.

The series is the same for the next values; noted with them: 1.6 ppm.
As to `Fc1cccc(F)c1C1=N[C@H](c2ccc(-c3ccc(OC(F)(F)F)cc3)cc2)CC1` [drawing 73], the “Kill rate in % after 6 d” value is 0%.
Still for that read-out and setting: next, `Fc1cccc(F)c1C1=N[C@H](c2ccc(-c3ccc(SC(F)(F)F)cc3)cc2)CC1` [drawing 76]: 5%.

In another series the test system is Spodoptera exigua. In words: Spodoptera exigua test (cabbage leaves, dip). To be noted: 0.04 ppm. The class given is in vivo. As to the method:
as §1, with “army worm (Spodoptera exigua)” for “diamond back moth (Plutella xylostella)”
Regarding `Fc1cccc(F)c1C1=NC(c2ccc(-c3ccc(OC(F)(F)F)cc3)cc2)CC1` (stereo not drawn) [drawing 80], the “Kill rate in % after 6 d” value is 55%.
As to `Fc1cccc(F)c1C1=N[C@@H](c2ccc(-c3ccc(OC(F)(F)F)cc3)cc2)CC1` [drawing 81], the “Kill rate in % after 6 d” value was 100%.

Staying with this series, now noted: 1.6 ppm.
For the molecule `Fc1cccc(F)c1C1=N[C@H](c2ccc(-c3ccc(OC(F)(F)C(F)F)cc3)cc2)CC1`, the “Kill rate in % after 6 d” value is on record as 0%.
The same measure, in the same setting: next, `Fc1cccc(F)c1C1=N[C@@H](c2ccc(-c3ccc(SC(F)(F)F)cc3)cc2)CC1` [drawing 83]: 100%; `Fc1cccc(F)c1C1=N[C@H](c2ccc(-c3ccc(SC(F)(F)F)cc3)cc2)CC1` [drawing 84]: 0%.

Staying with this series, now noted: 8 ppm.
For `Fc1cccc(F)c1C1=N[C@H](c2ccc(-c3ccc(OC(F)(F)F)cc3)cc2)CC1` [drawing 82], the “Kill rate in % after 6 d” value amounted to 0%.

The subject of the next series is Spodoptera frugiperda. As to the kind of experiment: Spodoptera frugiperda test (cabbage leaves, dip). Type of series: in vivo. The conditions noted are these: 0.0128 ppm. As to the method: as §1, with “army worm (Spodoptera frugiperda)” for “diamond back moth (Plutella xylostella)”
Take `Fc1cccc(F)c1C1=NC(c2ccc(-c3ccc(SC(F)(F)F)cc3)cc2)CC1` (stereo not drawn) [drawing 91]: the “Kill rate in % after 6 d” value was found to be 20%.

The same series, now with this note: 8 ppm.
Regarding `Fc1cccc(F)c1C1=N[C@H](c2ccc(-c3ccc(OC(F)(F)F)cc3)cc2)CC1` [drawing 90], the “Kill rate in % after 6 d” value was determined as 0%.

Source of the values: patent US20090012144A1 (priority 2000, published 2009).
